According to patent US7118895B2, “Process for producing aglycon by using diglycosidase and flavor-improved food containing the aglycon and converting agent to be used in the process” (Amano Enzyme Inc., priority 2000, dated 2006):

Test system: Crude diglycosidase
Assay: Examination of pH in the conversion into isoflavone aglycons by diglycosidase using soybean materials
Type: biochemical, Penicillium multicolor IAM7153
Conditions: for Decomposition efficiency of glycitin family in roasted soy flour / Decomposition efficiency of glycitin family in soymilk: 55° C.
Protocol: A substrate solution of 450 μL was prepared by suspending 50 mg of each soybean material (roasted soy flour (manufactured by Fuji Shokuryo K.K.), soymilk (manufactured by Gitoh Shokuhin K.K.), defatted soybean (manufactured by Fuji Seiyu K.K.), concentrated soybean protein (manufactured by Fuji Seiyu K.K.)), and adjusting the pH to 2 to 11 with hydrochloric acid or sodium hydroxide. Each enzyme solution of pH 2–11 wherein diglycosidase activity of crude diglycosidase was adjusted to 1.88 AU/mL was added thereto in an amount of 50 μL and the whole was reacted at 55° C. at the total volume of 500 μL. To the reaction mixture was added 700 μL of ethanol after 0, 1, 3, and 6 hours of the reaction. After stirring and ultrasonication, the mixture was subjected to centrifugal separation at 15,000 rpm and 4° C. for 10 minutes. The supernatant was filtered through a filter and the existence of isoflavone glycosides and aglycon isoflavones contained in the reaction mixture was detected by HLPC (Tables 15 to 26).

[1] = pH6.6, heat treatment of enzyme: no, reaction time 0 h
[2] = pH6.6, heat treatment of enzyme: no, reaction time 1 h
[3] = pH6.6, heat treatment of enzyme: no, reaction time 3 h
[4] = pH6.6, heat treatment of enzyme: no, reaction time 6 h
[5] = pH6.6, heat treatment of enzyme: yes, reaction time 6 h

Decomposition efficiency of glycitin family in concentrated soybean protein (pH1.6, heat treatment of enzyme: no, reaction time 0 h): 35.9%
Decomposition efficiency of glycitin family in concentrated soybean protein (pH1.6, heat treatment of enzyme: no, reaction time 1 h): 35.1%
Decomposition efficiency of glycitin family in concentrated soybean protein (pH1.6, heat treatment of enzyme: no, reaction time 3 h): 33.5%
Decomposition efficiency of glycitin family in concentrated soybean protein (pH1.6, heat treatment of enzyme: no, reaction time 6 h): 31.8%
Decomposition efficiency of glycitin family in concentrated soybean protein (pH1.6, heat treatment of enzyme: yes, reaction time 6 h): 30.9%
Decomposition efficiency of glycitin family in roasted soy flour (pH2, heat treatment of enzyme no, reaction time 0 h): 35.3
Decomposition efficiency of glycitin family in roasted soy flour (pH2, heat treatment of enzyme no, reaction time 1 h): 34.0
Decomposition efficiency of glycitin family in roasted soy flour (pH2, heat treatment of enzyme no, reaction time 3 h): 34.2
Decomposition efficiency of glycitin family in roasted soy flour (pH2, heat treatment of enzyme no, reaction time 6 h): 35.5
Decomposition efficiency of glycitin family in roasted soy flour (pH2, heat treatment of enzyme yes, reaction time 6 h): 35.2
Decomposition efficiency of glycitin family in soymilk (pH2.3, heat treatment of enzyme no, reaction time 0 h): not detected
Decomposition efficiency of glycitin family in soymilk (pH2.3, heat treatment of enzyme no, reaction time 1 h): not detected
Decomposition efficiency of glycitin family in soymilk (pH2.3, heat treatment of enzyme no, reaction time 3 h): not detected
Decomposition efficiency of glycitin family in soymilk (pH2.3, heat treatment of enzyme no, reaction time 6 h): not detected
Decomposition efficiency of glycitin family in soymilk (pH2.3, heat treatment of enzyme yes, reaction time 6 h): not detected
Decomposition efficiency of glycitin family in defatted soybean (pH2.6, heat treatment of enzyme: no, reaction time 0 h): not detected
Decomposition efficiency of glycitin family in defatted soybean (pH2.6, heat treatment of enzyme: no, reaction time 1 h): not detected
Decomposition efficiency of glycitin family in defatted soybean (pH2.6, heat treatment of enzyme: no, reaction time 3 h): not detected
Decomposition efficiency of glycitin family in defatted soybean (pH2.6, heat treatment of enzyme: no, reaction time 6 h): not detected
Decomposition efficiency of glycitin family in defatted soybean (pH2.6, heat treatment of enzyme: yes, reaction time 6 h): not detected
Decomposition efficiency of glycitin family in concentrated soybean protein (pH2.7, heat treatment of enzyme: no, reaction time 0 h): 35.9%
Decomposition efficiency of glycitin family in concentrated soybean protein (pH2.7, heat treatment of enzyme: no, reaction time 1 h): 36.6%
Decomposition efficiency of glycitin family in concentrated soybean protein (pH2.7, heat treatment of enzyme: no, reaction time 3 h): 36.5%
Decomposition efficiency of glycitin family in concentrated soybean protein (pH2.7, heat treatment of enzyme: no, reaction time 6 h): 36.6%
Decomposition efficiency of glycitin family in concentrated soybean protein (pH2.7, heat treatment of enzyme: yes, reaction time 6 h): 35.4%
Decomposition efficiency of glycitin family in roasted soy flour (pH3, heat treatment of enzyme no, reaction time 0 h): 35.3
Decomposition efficiency of glycitin family in roasted soy flour (pH3, heat treatment of enzyme no, reaction time 1 h): 38.7
Decomposition efficiency of glycitin family in roasted soy flour (pH3, heat treatment of enzyme no, reaction time 3 h): 30.8
Decomposition efficiency of glycitin family in roasted soy flour (pH3, heat treatment of enzyme no, reaction time 6 h): 31.7
Decomposition efficiency of glycitin family in roasted soy flour (pH3, heat treatment of enzyme yes, reaction time 6 h): 35.6
Decomposition efficiency of glycitin family in defatted soybean (pH3.4, heat treatment of enzyme: no, reaction time 0 h): not detected
Decomposition efficiency of glycitin family in defatted soybean (pH3.4, heat treatment of enzyme: no, reaction time 1 h): not detected
Decomposition efficiency of glycitin family in defatted soybean (pH3.4, heat treatment of enzyme: no, reaction time 3 h): not detected
Decomposition efficiency of glycitin family in defatted soybean (pH3.4, heat treatment of enzyme: no, reaction time 6 h): not detected
Decomposition efficiency of glycitin family in defatted soybean (pH3.4, heat treatment of enzyme: yes, reaction time 6 h): not detected
Decomposition efficiency of glycitin family in soymilk (pH3.5, heat treatment of enzyme no, reaction time 0 h): not detected
Decomposition efficiency of glycitin family in soymilk (pH3.5, heat treatment of enzyme no, reaction time 1 h): not detected
Decomposition efficiency of glycitin family in soymilk (pH3.5, heat treatment of enzyme no, reaction time 3 h): not detected
Decomposition efficiency of glycitin family in soymilk (pH3.5, heat treatment of enzyme no, reaction time 6 h): not detected
Decomposition efficiency of glycitin family in soymilk (pH3.5, heat treatment of enzyme yes, reaction time 6 h): not detected
Decomposition efficiency of glycitin family in concentrated soybean protein (pH3.7, heat treatment of enzyme: no, reaction time 0 h): 36.1%
Decomposition efficiency of glycitin family in concentrated soybean protein (pH3.7, heat treatment of enzyme: no, reaction time 1 h): 32.9%
Decomposition efficiency of glycitin family in concentrated soybean protein (pH3.7, heat treatment of enzyme: no, reaction time 3 h): 26.1%
Decomposition efficiency of glycitin family in concentrated soybean protein (pH3.7, heat treatment of enzyme: no, reaction time 6 h): 22.1%
Decomposition efficiency of glycitin family in concentrated soybean protein (pH3.7, heat treatment of enzyme: yes, reaction time 6 h): 35.9%
Decomposition efficiency of glycitin family in roasted soy flour (pH4, heat treatment of enzyme no, reaction time 0 h): 34.8
Decomposition efficiency of glycitin family in roasted soy flour (pH4, heat treatment of enzyme no, reaction time 1 h): 18.8
Decomposition efficiency of glycitin family in roasted soy flour (pH4, heat treatment of enzyme no, reaction time 3 h): 8.2
Decomposition efficiency of glycitin family in roasted soy flour (pH4, heat treatment of enzyme no, reaction time 6 h): not detected
Decomposition efficiency of glycitin family in roasted soy flour (pH4, heat treatment of enzyme yes, reaction time 6 h): 35.9
Decomposition efficiency of glycitin family in soymilk (pH4.8, heat treatment of enzyme no, reaction time 0 h): not detected
Decomposition efficiency of glycitin family in soymilk (pH4.8, heat treatment of enzyme no, reaction time 1 h): not detected
Decomposition efficiency of glycitin family in soymilk (pH4.8, heat treatment of enzyme no, reaction time 3 h): not detected
Decomposition efficiency of glycitin family in soymilk (pH4.8, heat treatment of enzyme no, reaction time 6 h): not detected
Decomposition efficiency of glycitin family in soymilk (pH4.8, heat treatment of enzyme yes, reaction time 6 h): not detected
Decomposition efficiency of glycitin family in defatted soybean (pH4.8, heat treatment of enzyme: no, reaction time 0 h): not detected
Decomposition efficiency of glycitin family in defatted soybean (pH4.8, heat treatment of enzyme: no, reaction time 1 h): not detected
Decomposition efficiency of glycitin family in defatted soybean (pH4.8, heat treatment of enzyme: no, reaction time 3 h): not detected
Decomposition efficiency of glycitin family in defatted soybean (pH4.8, heat treatment of enzyme: no, reaction time 6 h): not detected
Decomposition efficiency of glycitin family in defatted soybean (pH4.8, heat treatment of enzyme: yes, reaction time 6 h): not detected
Decomposition efficiency of glycitin family in roasted soy flour (pH5, heat treatment of enzyme no, reaction time 0 h): 34.8
Decomposition efficiency of glycitin family in roasted soy flour (pH5, heat treatment of enzyme no, reaction time 1 h): 22.9
Decomposition efficiency of glycitin family in roasted soy flour (pH5, heat treatment of enzyme no, reaction time 3 h): 6.5
Decomposition efficiency of glycitin family in roasted soy flour (pH5, heat treatment of enzyme no, reaction time 6 h): not detected
Decomposition efficiency of glycitin family in roasted soy flour (pH5, heat treatment of enzyme yes, reaction time 6 h): 35.2
Decomposition efficiency of glycitin family in concentrated soybean protein (pH5.1, heat treatment of enzyme: no, reaction time 0 h): 36.1%
Decomposition efficiency of glycitin family in concentrated soybean protein (pH5.1, heat treatment of enzyme: no, reaction time 1 h): 33.2%
Decomposition efficiency of glycitin family in concentrated soybean protein (pH5.1, heat treatment of enzyme: no, reaction time 3 h): 26.0%
Decomposition efficiency of glycitin family in concentrated soybean protein (pH5.1, heat treatment of enzyme: no, reaction time 6 h): 21.0%
Decomposition efficiency of glycitin family in concentrated soybean protein (pH5.1, heat treatment of enzyme: yes, reaction time 6 h): 35.8%
Decomposition efficiency of glycitin family in defatted soybean (pH5.4, heat treatment of enzyme: no, reaction time 0 h): not detected
Decomposition efficiency of glycitin family in defatted soybean (pH5.4, heat treatment of enzyme: no, reaction time 1 h): not detected
Decomposition efficiency of glycitin family in defatted soybean (pH5.4, heat treatment of enzyme: no, reaction time 3 h): not detected
Decomposition efficiency of glycitin family in defatted soybean (pH5.4, heat treatment of enzyme: no, reaction time 6 h): not detected
Decomposition efficiency of glycitin family in defatted soybean (pH5.4, heat treatment of enzyme: yes, reaction time 6 h): not detected
Decomposition efficiency of glycitin family in soymilk (pH6.2, heat treatment of enzyme no, reaction time 0 h): not detected
Decomposition efficiency of glycitin family in soymilk (pH6.2, heat treatment of enzyme no, reaction time 1 h): not detected
Decomposition efficiency of glycitin family in soymilk (pH6.2, heat treatment of enzyme no, reaction time 3 h): not detected
Decomposition efficiency of glycitin family in soymilk (pH6.2, heat treatment of enzyme no, reaction time 6 h): not detected
Decomposition efficiency of glycitin family in soymilk (pH6.2, heat treatment of enzyme yes, reaction time 6 h): not detected
Decomposition efficiency of glycitin family in roasted soy flour (pH6.5, heat treatment of enzyme no, reaction time 0 h): 35.4
Decomposition efficiency of glycitin family in roasted soy flour (pH6.5, heat treatment of enzyme no, reaction time 1 h): 35.0
Decomposition efficiency of glycitin family in roasted soy flour (pH6.5, heat treatment of enzyme no, reaction time 3 h): 19.7
Decomposition efficiency of glycitin family in roasted soy flour (pH6.5, heat treatment of enzyme no, reaction time 6 h): 11.9
Decomposition efficiency of glycitin family in roasted soy flour (pH6.5, heat treatment of enzyme yes, reaction time 6 h): 35.4
Decomposition efficiency of glycitin family in concentrated soybean protein [1]: 36.1%
Decomposition efficiency of glycitin family in defatted soybean [1]: not detected
Decomposition efficiency of glycitin family in concentrated soybean protein [2]: 34.8%
Decomposition efficiency of glycitin family in defatted soybean [2]: not detected
Decomposition efficiency of glycitin family in concentrated soybean protein [3]: 32.4%
Decomposition efficiency of glycitin family in defatted soybean [3]: not detected
Decomposition efficiency of glycitin family in concentrated soybean protein [4]: 29.5%
Decomposition efficiency of glycitin family in defatted soybean [4]: not detected
Decomposition efficiency of glycitin family in concentrated soybean protein [5]: 35.2%
Decomposition efficiency of glycitin family in defatted soybean [5]: not detected
Decomposition efficiency of glycitin family in soymilk (pH7.2, heat treatment of enzyme no, reaction time 0 h): not detected
Decomposition efficiency of glycitin family in soymilk (pH7.2, heat treatment of enzyme no, reaction time 1 h): not detected
Decomposition efficiency of glycitin family in soymilk (pH7.2, heat treatment of enzyme no, reaction time 3 h): not detected
Decomposition efficiency of glycitin family in soymilk (pH7.2, heat treatment of enzyme no, reaction time 6 h): not detected
Decomposition efficiency of glycitin family in soymilk (pH7.2, heat treatment of enzyme yes, reaction time 6 h): not detected
Decomposition efficiency of glycitin family in defatted soybean (pH7.8, heat treatment of enzyme: no, reaction time 0 h): not detected
Decomposition efficiency of glycitin family in defatted soybean (pH7.8, heat treatment of enzyme: no, reaction time 1 h): not detected
Decomposition efficiency of glycitin family in defatted soybean (pH7.8, heat treatment of enzyme: no, reaction time 3 h): not detected
Decomposition efficiency of glycitin family in defatted soybean (pH7.8, heat treatment of enzyme: no, reaction time 6 h): not detected
Decomposition efficiency of glycitin family in defatted soybean (pH7.8, heat treatment of enzyme: yes, reaction time 6 h): not detected
Decomposition efficiency of glycitin family in roasted soy flour (pH8.5, heat treatment of enzyme no, reaction time 0 h): 31.0
Decomposition efficiency of glycitin family in roasted soy flour (pH8.5, heat treatment of enzyme no, reaction time 1 h): 32.4
Decomposition efficiency of glycitin family in roasted soy flour (pH8.5, heat treatment of enzyme no, reaction time 3 h): 30.6
Decomposition efficiency of glycitin family in roasted soy flour (pH8.5, heat treatment of enzyme no, reaction time 6 h): 30.2
Decomposition efficiency of glycitin family in roasted soy flour (pH8.5, heat treatment of enzyme yes, reaction time 6 h): 31.7
Decomposition efficiency of glycitin family in concentrated soybean protein (pH8.6, heat treatment of enzyme: no, reaction time 0 h): 33.0%
Decomposition efficiency of glycitin family in concentrated soybean protein (pH8.6, heat treatment of enzyme: no, reaction time 1 h): 32.6%
Decomposition efficiency of glycitin family in concentrated soybean protein (pH8.6, heat treatment of enzyme: no, reaction time 3 h): 32.6%
Decomposition efficiency of glycitin family in concentrated soybean protein (pH8.6, heat treatment of enzyme: no, reaction time 6 h): 32.0%
Decomposition efficiency of glycitin family in concentrated soybean protein (pH8.6, heat treatment of enzyme: yes, reaction time 6 h): 31.6%
Decomposition efficiency of glycitin family in soymilk (pH11.6, heat treatment of enzyme no, reaction time 0 h): not detected
Decomposition efficiency of glycitin family in soymilk (pH11.6, heat treatment of enzyme no, reaction time 1 h): not detected
Decomposition efficiency of glycitin family in soymilk (pH11.6, heat treatment of enzyme no, reaction time 3 h): not detected
Decomposition efficiency of glycitin family in soymilk (pH11.6, heat treatment of enzyme no, reaction time 6 h): not detected
Decomposition efficiency of glycitin family in soymilk (pH11.6, heat treatment of enzyme yes, reaction time 6 h): not detected
SMILES: COc1cc2c(=O)c(-c3ccc(O)cc3)coc2cc1O[C@@H]1O[C@H](COC(C)=O)[C@@H](O)[C@H](O)[C@H]1O [acetylglycitin, 6″-O-acetylglycitin]
